Data reported in PubChem BioAssay (NCI).
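Protocol summary: plate cells (96-well), add compound at 5 concentrations, incubate 48 h, interpolate endpoints linearly. TGI: total growth inhibition.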

How the values were obtained:
Assay in all cases: NCI-60 cell line screen, 48 h
[1] = test system: SF-295 CNS
[2] = test system: OVCAR-5 ovarian
[3] = test system: IGROV1 ovarian
[4] = test system: HL-60(TB) leukemia
[5] = test system: UACC-257 melanoma
[6] = test system: MDA-MB-435
[7] = test system: HOP-62 NSCLC
[8] = test system: SK-MEL-28 melanoma
[9] = test system: BT-549 breast
[10] = test system: EKVX NSCLC
[11] = test system: SK-MEL-2 melanoma
[12] = test system: NCI-H23 lung
[13] = test system: 786-0 renal
[14] = test system: KM12 colon
[15] = test system: SF-268 CNS
[16] = test system: SK-MEL-5 melanoma
[17] = test system: HCT-15 colon
[18] = test system: SR leukemia
[19] = test system: A498 renal
[20] = test system: RPMI-8226 leukemia
[21] = test system: HOP-92 NSCLC
[22] = test system: OVCAR-8 ovarian
[23] = test system: HT29 colon
[24] = test system: COLO 205 colon
[25] = test system: LOX IMVI melanoma
[26] = test system: ACHN renal
[27] = test system: HS 578T breast
[28] = test system: SK-OV-3 ovarian
[29] = test system: SNB-75 CNS
[30] = test system: MDA-MB-231 breast
[31] = test system: MDA-N
[32] = test system: UO-31 renal
[33] = test system: CAKI-1 renal
[34] = test system: SN12C renal
[35] = test system: MALME-3M melanoma
[36] = test system: T-47D breast
[37] = test system: NCI/ADR-RES ovarian
[38] = test system: HCT-116 colon
[39] = test system: CCRF-CEM leukemia
[40] = test system: U251 CNS
[41] = test system: A549 NSCLC
[42] = test system: PC-3 prostate
[43] = test system: TK-10 renal
[44] = test system: SW-620 colon
[45] = test system: M14 melanoma
[46] = test system: NCI-H460 lung
[47] = test system: OVCAR-4 ovarian
[48] = test system: NCI-H226 lung
[49] = test system: OVCAR-3 ovarian
[50] = test system: RXF 393 renal
[51] = test system: NCI-H522 lung
[52] = test system: DU-145 prostate
[53] = test system: UACC-62 melanoma
[54] = test system: SF-539 CNS
[55] = test system: HCC-2998 colon
[56] = test system: SNB-19 CNS
[57] = test system: MCF7 breast
[58] = test system: K-562 leukemia
[59] = test system: MOLT-4 leukemia

`CC1CC[C@@]2(OC1)OC1C[C@H]3[C@@H]4CC=C5C[C@@H](OC6OC(CO)C(OC7OC(CO)C(O)C(O)C7O)C(O)C6OC6OC(C)C(O)C(O)C6O)CC[C@]5(C)[C@H]4CC[C@]3(C)C1[C@@H]2C` (some centres undefined) was tested, and the TGI [1] was 5.27 µM, the TGI [2] was 4.58 µM and the TGI [3] was 1.02 µM. For the same compound, the TGI [4] was 1.97 µM, the TGI [5] was 1.02 µM and the TGI [6] was 1.29 µM. The TGI [7] was 1600 nM, the TGI [8] was 1.02 µM and the TGI [9] was 0.848 µM. For the same compound, the TGI [10] was 1.13 µM, the TGI [11] was 3.2 µM and the TGI [12] was 2.57 µM. The TGI [13] was 0.88 µM, the TGI [14] was 1.22 µM and the TGI [15] was 1.2 µM. The TGI [16] was 977 nM, the TGI [17] was 6.95 µM and the TGI [18] was 0.852 µM. It also gave a TGI [19] of 1.32 µM, a TGI [20] of 1.33 µM and a TGI [21] of 2.12 µM. It also gave a TGI [22] of 1.79 µM, a TGI [23] of 0.951 µM and a TGI [24] of 910 nM. For the same compound, the TGI [25] was 0.852 µM, the TGI [26] was 4.4 µM and the TGI [27] was 1.57 µM. It also gave a TGI [28] of 6.96 µM, a TGI [29] of 5.47 µM and a TGI [30] of 0.918 µM. The TGI [31] was 2.34 µM, the TGI [32] was 0.887 µM and the TGI [33] was 2.71 µM. The TGI [34] was 1520 nM, the TGI [35] was 1.33 µM and the TGI [36] was 1.21 µM. For the same compound, the TGI [37] was 5.71 µM, the TGI [38] was 2.31 µM and the TGI [39] was 1480 nM. For the same compound, the TGI [40] was 0.923 µM, the TGI [41] was 2.15 µM and the TGI [42] was 0.93 µM. For the same compound, the TGI [43] was 3.73 µM, the TGI [44] was 1.51 µM and the TGI [45] was 0.859 µM. For the same compound, the TGI [46] was 1.76 µM, the TGI [47] was 5.03 µM and the TGI [48] was 1.67 µM. It also gave a TGI [49] of 1.7 µM, a TGI [50] of 0.857 µM and a TGI [51] of 2930 nM. For the same compound, the TGI [52] was 0.919 µM, the TGI [53] was 0.876 µM and the TGI [54] was 0.88 µM. For the same compound, the TGI [55] was 890 nM, the TGI [56] was 3.92 µM and the TGI [57] was 1.36 µM. For the same compound, the TGI [58] was 1090 nM.

In the case of `Clc1ccc(C2=CC(c3ccccc3)N3C(=N[C@H]4CCCC[C@@H]43)N2)cc1` (some centres undefined), the TGI [1] is reported as 20.3 µM, the TGI [2] is reported as 23.6 µM and the TGI [3] is reported as 13.6 µM. For the same compound, the TGI [4] was 7.79 µM, the TGI [5] was 25.7 µM and the TGI [6] was 20.4 µM. The TGI [8] was 11 µM, the TGI [9] was 21.3 µM and the TGI [10] was 17.4 µM. For the same compound, the TGI [11] was 27.2 µM, the TGI [12] was 20.6 µM and the TGI [13] was 10.9 µM. For the same compound, the TGI [14] was 8.79 µM, the TGI [15] was 25.2 µM and the TGI [16] was 3350 nM. The TGI [17] was 15.5 µM, the TGI [18] was 5.98 µM and the TGI [19] was 22.2 µM. It also gave a TGI [20] of 7.02 µM, a TGI [21] of 17.2 µM and a TGI [22] of 11.4 µM. It also gave a TGI [23] of 10.2 µM, a TGI [24] of 4230 nM and a TGI [25] of 19.7 µM. For the same compound, the TGI [26] was 17.8 µM, the TGI [27] was 23.6 µM and the TGI [28] was 27.9 µM. The TGI [29] was 13.6 µM, the TGI [30] was 22.1 µM and the TGI [31] was 18.9 µM. For the same compound, the TGI [32] was 22.9 µM, the TGI [33] was 26.9 µM and the TGI [35] was 14.5 µM. For the same compound, the TGI [36] was 21.6 µM, the TGI [37] was 19.6 µM and the TGI [38] was 11.6 µM. For the same compound, the TGI [59] was 12.5 µM, the TGI [39] was over 100000 nM and the TGI [40] was 17.2 µM. For the same compound, the TGI [41] was 18.4 µM, the TGI [42] was 19.5 µM and the TGI [43] was 20 µM. The TGI [44] was 15.4 µM, the TGI [45] was 10.5 µM and the TGI [46] was 8.72 µM. The TGI [47] was 18.4 µM, the TGI [48] was 23 µM and the TGI [49] was 19.3 µM. It also gave a TGI [50] of 8.44 µM, a TGI [52] of 20.7 µM and a TGI [53] of 18.6 µM. It also gave a TGI [54] of 19.6 µM, a TGI [55] of 5080 nM and a TGI [56] of 17.6 µM. It also gave a TGI [57] of 13.2 µM and a TGI [58] of over 100000 nM.
